Laboratory results: ChEMBL document CHEMBL1136455, “The synthesis and antibacterial activity of 1,3,4-thiadiazole phenyl oxazolidinone analogues” (Bioorg Med Chem Lett, 2003)
Converted amounts (≈) assume the structure as drawn.

Legend:
Haemophilus influenzae = assay: In vitro antibacterial activity against ampicillin resistant Haemophilus influenzae 30063 (B-lactamase +); assay type: functional
Staphylococcus aureus [1] = assay: In vitro antibacterial activity against methicillin susceptible Staphylococcus aureus UC 9213 (MSSA); assay type: functional
Enterococcus faecalis = assay: In vitro antibacterial activity against vancomycin resistant Enterococcus faecalis UC 9217 (VREA); assay type: functional
Mus musculus [2] = assay: In vivo efficacy to protect the Staphylococcus aureus infected mouse and the activity was reported using Linezolid as a control with ED50 = 3.5; assay type: functional
[3] = test system: Staphylococcus epidermidis; assay: In vitro antibacterial activity against methicillin resistant Staphylococcus epidermidis UC 12084; assay type: functional
Moraxella catarrhalis = assay: In vitro antibacterial activity against Moraxella catarrhalis 30607; assay type: functional
Streptococcus pneumoniae = assay: In vitro antibacterial activity against penicillin sensitive Streptococcus pneumoniae UC 9912; assay type: functional
Staphylococcus aureus [4] = assay: In vitro antibacterial activity against methicillin resistant Staphylococcus aureus UC 12673 (MRSA); assay type: functional
Mus musculus [5] = assay: In vivo efficacy to protect the Staphylococcus aureus infected mouse and the activity was reported using Linezolid as a control with ED50 =11.5; assay type: functional
[6] = Bioavailability in rat; assay type: ADME, organism-based; settings: in vivo
Mus musculus [7] = assay: In vivo efficacy to protect the Staphylococcus aureus infected mouse and the activity was reported using Linezolid as a control with ED50 = 8; assay type: functional
[8] = Clearance in rat; assay type: ADME, organism-based; settings: in vivo
Mus musculus [9] = assay: In vivo efficacy to protect the Staphylococcus aureus infected mouse and the activity was reported using Linezolid as a control with ED50 = 1.8; assay type: functional
Mus musculus [10] = assay: In vivo efficacy to protect the Staphylococcus aureus infected mouse and the activity was reported using Linezolid as a control with ED50 = 2.9; assay type: functional
Mus musculus [11] = assay: In vivo efficacy to protect the Staphylococcus aureus infected mouse and the activity was reported using Linezolid as a control with ED50 = 2.2
Mus musculus [12] = assay: In vivo efficacy to protect the Staphylococcus aureus infected mouse and the activity was reported using Linezolid as a control with ED50 = 3.8; assay type: functional
Mus musculus [13] = assay: In vivo efficacy to protect the Staphylococcus aureus infected mouse and the activity was reported using Linezolid as a control with ED50 =[…]; assay type: functional
[14] = test system: Staphylococcus epidermidis; assay: In vitro antibacterial activity against methicillin resistant Staphylococcus epidermidis UC 12084; range is 1-2; assay type: functional

SMILES	MIC (Haemophilus influenzae) [mg/L]	MIC (Staphylococcus aureus [1]) [mg/L]	MIC (Enterococcus faecalis) [mg/L]	ED50 (Mus musculus [2]) [mg/kg]	MIC [3] [mg/L]	MIC (Moraxella catarrhalis) [mg/L]	MIC (Streptococcus pneumoniae) [mg/L]	MIC (Staphylococcus aureus [4]) [mg/L]	ED50 (Mus musculus [5]) [mg/kg]	bioavailability [6] [%]	ED50 (Mus musculus [7]) [mg/kg]	clearance [8] [L/h/kg]	ED50 (Mus musculus [9]) [mg/kg]	ED50 (Mus musculus [10]) [mg/kg]	ED50 (Mus musculus [11]) [mg/kg]	ED50 (Mus musculus [12]) [mg/kg]	ED50 (Mus musculus [13]) [mg/kg]	MIC [14] [mg/L]
CC(=O)NC[C@H]1CN(c2ccc(-c3nnc(C)s3)c(F)c2)C(=O)O1	2 (≈ 5.71 µM)	1 (≈ 2.85 µM)	0.5 (≈ 1.43 µM)	6.2	< 0.125	2 (≈ 5.71 µM)	< 0.125	0.5 (≈ 1.43 µM)										
CC(=O)NC[C@H]1CN(c2ccc(-c3nnc(CC(N)=O)s3)c(F)c2)C(=O)O1	4 (≈ 10.2 µM)	4 (≈ 10.2 µM)	2 (≈ 5.08 µM)	> 20	0.5 (≈ 1.27 µM)	8 (≈ 20.3 µM)	< 0.125	4 (≈ 10.2 µM)										
CC(=O)NC[C@H]1CN(c2ccc(-c3nnc(CN)s3)c(F)c2)C(=O)O1	2 (≈ 5.47 µM)	8 (≈ 21.9 µM)	1 (≈ 2.74 µM)		1 (≈ 2.74 µM)	2 (≈ 5.47 µM)	< 0.125	4 (≈ 10.9 µM)	21.3									
CNCc1nnc(-c2ccc(N3C[C@H](CNC(C)=O)OC3=O)cc2F)s1	4 (≈ 10.5 µM)	4 (≈ 10.5 µM)	2 (≈ 5.27 µM)		1 (≈ 2.64 µM)	4 (≈ 10.5 µM)	< 0.5	4 (≈ 10.5 µM)										
C/C(S)=N/C[C@H]1CN(c2ccc(-c3nnc(CN)s3)c(F)c2)C(=O)O1	< 0.5	< 0.5	< 0.5		< 0.5	< 0.5	< 0.5			14	> 20	2.06						
CC(=O)NC[C@H]1CN(c2ccc(-c3nncs3)c(F)c2)C(=O)O1	4 (≈ 11.9 µM)	1 (≈ 2.97 µM)	1 (≈ 2.97 µM)		0.25 (≈ 0.743 µM)	4 (≈ 11.9 µM)	0.25 (≈ 0.743 µM)	1 (≈ 2.97 µM)					2.2					
CC(=O)NC[C@H]1CN(c2ccc(-c3nnc(CC#N)s3)c(F)c2)C(=O)O1	4 (≈ 10.7 µM)	2 (≈ 5.33 µM)	1 (≈ 2.66 µM)		0.25 (≈ 0.666 µM)	4 (≈ 10.7 µM)	0.25 (≈ 0.666 µM)	1 (≈ 2.66 µM)						> 20				
CC(=O)CCc1nnc(-c2ccc(N3C[C@H](CNC(C)=O)OC3=O)cc2F)s1	4 (≈ 9.84 µM)	1 (≈ 2.46 µM)	0.5 (≈ 1.23 µM)		0.25 (≈ 0.615 µM)	4 (≈ 9.84 µM)	< 0.125	1 (≈ 2.46 µM)							7.6			
CCc1nnc(-c2ccc(N3C[C@H](CNC(C)=O)OC3=O)cc2F)s1	4 (≈ 11 µM)	1 (≈ 2.74 µM)	0.5 (≈ 1.37 µM)		0.25 (≈ 0.686 µM)	2 (≈ 5.49 µM)	0.25 (≈ 0.686 µM)	0.5 (≈ 1.37 µM)								9.2		
CC(=O)NC[C@H]1CN(c2ccc(-c3nnc(C[S+](C)[O-])s3)c(F)c2)C(=O)O1 (stereo not given in full)	8 (≈ 19.4 µM)	8 (≈ 19.4 µM)	4 (≈ 9.7 µM)		0.5 (≈ 1.21 µM)	8 (≈ 19.4 µM)	0.25 (≈ 0.606 µM)	8 (≈ 19.4 µM)										
CC(=O)NC[C@H]1CN(c2ccc(-c3nnc(C(N)=O)s3)c(F)c2)C(=O)O1	16 (≈ 42.2 µM)	0.5 (≈ 1.32 µM)	1 (≈ 2.64 µM)		0.25 (≈ 0.659 µM)	4 (≈ 10.5 µM)	0.25 (≈ 0.659 µM)	0.5 (≈ 1.32 µM)									12.4	
CC(=O)NC[C@H]1CN(c2ccc(N3CCOCC3)c(F)c2)C(=O)O1 [LINEZOLID]	16 (≈ 47.4 µM)					8 (≈ 23.7 µM)												1 (≈ 2.96 µM)
